Measurements taken from patent US8846601B2, “Melanocortin receptor-specific peptides” (Palatin Technologies, Inc., priority 2009, dated 2014).
Peptide text beside a SMILES is read from it.

Experiments:
hMC4-R [1] = biological target: T1, hMC4-R (Homo sapiens (Human), UniProt P32245); experiment: Competitive binding assay using Eu-NDP-α-MSH (TRF), hMC4-R membranes; settings: averaged; Eu-NDP-α-MSH (values marked *); read-out: MC4-R Ki
Procedure: Alternatively, a competitive inhibition binding assay was performed employing Eu-NDP-α-MSH (PerkinElmer Life Sciences catalog No. AD0225) with determination by time-resolved fluorometry (TRF) of the lanthanide chelate. […] After incubation for 90 minutes at 37° C., the reaction was stopped by filtration over AcroWell 96-well filter plates (Pall Life Sciences). The filter plates were washed 4 times with 200 μL of ice-cold phosphate-buffered saline. DELFIA Enhancement solution (PerkinElmer Life Sciences) was added to each well. […] Each assay was conducted in duplicate and mean values were utilized. Ki values were determined by curve-fitting with Graph-Pad Prism® software using a one-site fixed-slope competition binding model.

hMC4-R [2] = biological target: T1, hMC4-R; experiment: Competitive inhibition binding assay using [I125]-NDP-α-MSH, hMC4-R membranes; settings: averaged; [I125]-NDP-α-MSH (values not marked *); read-out: MC4-R Ki
Procedure: A competitive inhibition binding assay is performed using membrane homogenates prepared from HEK-293 cells that express recombinant hMC4-R, hMC3-R, or hMC5-R, and from B-16 mouse melanoma cells (containing endogenous MC1-R). In some instances, HEK-293 cells that express recombinant hMC1-R were employed. In the examples that follow, all MC3-R, MC4-R and MC5-R values are for human recombinant receptors. […] Membrane homogenates were incubated with 0.2 nM (for hMC4-R) 0.4 nM (for MC3-R and MC5-R) or 0.1 nM (for mouse B16 MC1-R or hMC1-R) [I^125]-NDP-α-MSH (Perkin Elmer) and increasing concentrations of test peptides of the present invention in buffer containing 25 mM HEPES buffer (pH 7.5) with 100 mM NaCl, 2 mM CaCl2, 2 mM MgCl2, 0.3 mM 1,10-phenanthroline, and 0.2% bovine serum albumin. After incubation for 60 minutes at 37° C., the assay mixture was filtered and the membranes washed three times with ice-cold buffer. Filters were dried and counted in a gamma counter for bound radioactivity. […] Maximal specific binding (100%) was defined as the difference in radioactivity (cpm) bound to cell membranes in the absence and presence of 1 μM NDP-α-MSH. […] Each assay was conducted in triplicate and the actual mean values are described, with results less than 0% reported as 0%. Ki values for test peptides of the present invention were determined using Graph-Pad Prism® curve-fitting software.

T1 sequence (P32245 whole entry): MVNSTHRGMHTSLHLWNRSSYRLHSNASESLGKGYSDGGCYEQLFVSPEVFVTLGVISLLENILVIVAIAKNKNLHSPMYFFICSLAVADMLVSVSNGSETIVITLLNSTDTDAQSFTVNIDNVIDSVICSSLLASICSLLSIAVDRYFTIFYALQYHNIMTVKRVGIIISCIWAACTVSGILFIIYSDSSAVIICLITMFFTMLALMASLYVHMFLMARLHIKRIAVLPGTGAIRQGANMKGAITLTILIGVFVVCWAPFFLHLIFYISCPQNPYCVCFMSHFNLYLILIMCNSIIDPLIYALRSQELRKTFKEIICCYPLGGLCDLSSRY

Ki (hMC4-R [1]) [nM]	Ki (hMC4-R [2]) [nM]	SMILES
	4	CC(=O)N[C@@H](CCCNC(=N)N)C(=O)N[C@H]1CCCC(=O)NCC[C@@H](C(N)=O)NC(=O)[C@H](Cc2c[nH]c3ccccc23)NC(=O)[C@H](CCCNC(=N)N)NC(=O)[C@@H](Cc2ccccc2)NC(=O)[C@H](CCS(C)(=O)=O)NC1=O [compound 145, Ac-Arg-cyclo(hGlu- Met(O2)-D-Phe-Arg- Trp-Dab)-NH2] (HELM PEPTIDE1{[ac].R.[O=C([C@H](CCCC(=O)[*:3])N[*:1])[*:2]].[CS(=O)(=O)CC[C@H](N[*:1])C(=O)[*:2]].[dF].R.W.[Dab].[am]}$PEPTIDE1,PEPTIDE1,3:R3-8:R3$$$V2.0)
	20	CC(=O)N[C@@H](CCCNC(=N)N)C(=O)N[C@H]1CCCC(=O)NCC[C@@H](C(N)=O)NC(=O)[C@H](Cc2c[nH]c3ccccc23)NC(=O)[C@H](CCCNC(=N)N)NC(=O)[C@@H](Cc2ccccc2)NC(=O)[C@H](CCC(N)=O)NC1=O [compound 147, Ac-Arg-cyclo(hGlu-Gln- D-Phe-Arg-Trp-Dab)- NH2]
	4	CC(=O)N[C@@H](CCCNC(=N)N)C(=O)N[C@H]1CCCCNC(=O)C[C@@H](C(N)=O)NC(=O)[C@H](Cc2c[nH]c3ccccc23)NC(=O)[C@H](CCCNC(=N)N)NC(=O)[C@@H](Cc2ccccc2)NC(=O)[C@H](CCC(N)=O)NC1=O [compound 151, Ac-Arg-cyclo(Lys-Gln- D-Phe-Arg-Trp-Asp)- NH2] (HELM PEPTIDE1{[ac].R.K.Q.[dF].R.W.D.[am]}$PEPTIDE1,PEPTIDE1,3:R3-8:R3$$$V2.0)
	365	CCCCC(=O)N[C@H]1CCC(=O)NCC[C@@H](C(=O)N[C@@H](Cc2c[nH]c3ccccc23)C(N)=O)NC(=O)[C@H](CCCNC(=N)N)NC(=O)[C@@H](Cc2ccccc2)NC(=O)[C@H](Cc2c[nH]cn2)NC1=O [compound 153, n-C4H9—CO-cyclo(Glu- His-D-Phe-Arg-Dab)- Trp-NH2]
	50	CC(=O)N[C@@H](CCCN)C(=O)N[C@H]1CCCNC(=O)CC[C@@H](C(N)=O)NC(=O)[C@H](Cc2c[nH]c3ccccc23)NC(=O)[C@H](CCCNC(=N)N)NC(=O)[C@@H](Cc2ccccc2)NC(=O)[C@H](CC(N)=O)NC1=O [compound 158, Ac-Orn-cyclo(Orn-Asn- D-Phe-Arg-Trp-Glu)- NH2] (HELM PEPTIDE1{[ac].[Orn].[Orn].N.[dF].R.W.E.[am]}$PEPTIDE1,PEPTIDE1,3:R3-8:R3$$$V2.0)

Further lines, the compound ahead of its results:

SMILES	Ki (hMC4-R [1]) [nM]	Ki (hMC4-R [2]) [nM]
CC(=O)N[C@@H](CCCNC(=N)N)C(=O)N[C@H]1CC(=O)NCCCC[C@@H](C(N)=O)NC(=O)[C@H](Cc2c[nH]c3ccccc23)NC(=O)[C@H](CCCCN)NC(=O)[C@@H](Cc2ccccc2)NC(=O)[C@H](Cc2c[nH]cn2)NC1=O [compound 6, Ac-Arg-cyclo(Asp-His- D-Phe-Lys-Trp-Lys)- NH2] (HELM PEPTIDE1{[ac].R.D.H.[dF].K.W.K.[am]}$PEPTIDE1,PEPTIDE1,3:R3-8:R3$$$V2.0)	533	
CC(=O)N[C@@H](CCCNC(=N)N)C(=O)N[C@H]1CC(=O)NCCCC[C@@H](C(N)=O)NC(=O)[C@H](Cc2c[nH]c3ccccc23)NC(=O)[C@H](CCCCN)NC(=O)[C@@H](Cc2ccccc2)NC(=O)[C@H](CCCCN)NC1=O [compound 7, Ac-Arg-cyclo(Asp-Lys- D-Phe-Lys-Trp-Lys)- NH2] (HELM PEPTIDE1{[ac].R.D.K.[dF].K.W.K.[am]}$PEPTIDE1,PEPTIDE1,3:R3-8:R3$$$V2.0)	2960	
CC(=O)N[C@@H](CCCNC(=N)N)C(=O)N[C@H]1CC(=O)NCCCC[C@@H](C(N)=O)NC(=O)[C@H](Cc2c[nH]c3ccccc23)NC(=O)[C@H](CCCCN)NC(=O)[C@@H](Cc2ccccc2)NC(=O)[C@H](C)NC1=O [compound 8, Ac-Arg-cyclo(Asp-Ala- D-Phe-Lys-Trp-Lys)- NH2] (HELM PEPTIDE1{[ac].R.D.A.[dF].K.W.K.[am]}$PEPTIDE1,PEPTIDE1,3:R3-8:R3$$$V2.0)	3020	
CC(=O)N[C@@H](CCCNC(=N)N)C(=O)N[C@H]1CC(=O)NCCCC[C@@H](C(N)=O)NC(=O)[C@H](Cc2c[nH]c3ccccc23)NC(=O)[C@H](CCCNC(=N)N)NC(=O)[C@@H](Cc2ccccc2)NC(=O)[C@H](Cc2ccc(O)cc2)NC1=O [compound 11, Ac-Arg-cyclo(Asp-Tyr- D-Phe-Arg-Trp-Lys)- NH2] (HELM PEPTIDE1{[ac].R.D.Y.[dF].R.W.K.[am]}$PEPTIDE1,PEPTIDE1,3:R3-8:R3$$$V2.0)	43	
CC(=O)N[C@@H](CCCNC(=N)N)C(=O)N[C@H]1CC(=O)NCCCC[C@@H](C(=O)NC2CC2)NC(=O)[C@H](Cc2c[nH]c3ccccc23)NC(=O)[C@H](CCCNC(=N)N)NC(=O)[C@@H](Cc2ccccc2)NC(=O)[C@H](CCN)NC1=O [compound 122, Ac-Arg-cyclo(Asp-Dab- D-Phe-Arg-Trp-Lys)- NH-cyclopropyl]		3
CC(=O)N[C@@H](CCCNC(=N)N)C(=O)N[C@H]1CCCCNC(=O)C[C@@H](C(=O)O)NC(=O)[C@H](Cc2c[nH]c3ccccc23)NC(=O)[C@H](CCCNC(=N)N)NC(=O)[C@@H](Cc2ccccc2)NC(=O)[C@H](CCN)NC1=O [compound 131, Ac-Arg-cyclo(Lys-Dab- D-Phe-Arg-Trp-Asp)- OH] (HELM PEPTIDE1{[ac].R.K.[Dab].[dF].R.W.D}$PEPTIDE1,PEPTIDE1,3:R3-8:R3$$$V2.0)		35
CC(=O)N[C@@H](CCCNC(=N)N)C(=O)N[C@H]1CCNC(=O)CCC[C@@H](C(=O)O)NC(=O)[C@H](Cc2c[nH]c3ccccc23)NC(=O)[C@H](CCCNC(=N)N)NC(=O)[C@@H](Cc2ccccc2)NC(=O)[C@H](CCN)NC1=O [compound 136, Ac-Arg-cyclo(Dab-Dab- D-Phe-Arg-Trp-hGlu)- OH]		35
N=C(N)NCCC[C@H](NC(=O)CC1CCCCC1)C(=O)N[C@H]1CC(=O)NCCCC[C@@H](C(N)=O)NC(=O)[C@H](Cc2c[nH]c3ccccc23)NC(=O)[C@H](CCCNC(=N)N)NC(=O)[C@@H](Cc2ccccc2)NC(=O)[C@H](CCN)NC1=O [compound 139, Cyclohexylacetyl-Arg- cyclo(Asp-Dab-D-Phe- Arg-Trp-Lys)-NH2]		1
N=C(N)NCCC[C@H](NC(=O)Cc1ccccc1)C(=O)N[C@H]1CC(=O)NCCCC[C@@H](C(N)=O)NC(=O)[C@H](Cc2c[nH]c3ccccc23)NC(=O)[C@H](CCCNC(=N)N)NC(=O)[C@@H](Cc2ccccc2)NC(=O)[C@H](CCN)NC1=O [compound 140, Phenylacetyl-Arg- cyclo(Asp-Dab-D-Phe- Arg-Trp-Lys)-NH2]		2
CC(=O)N[C@@H](CCCNC(N)=O)C(=O)N[C@H]1CC(=O)NCCCC[C@@H](C(N)=O)NC(=O)[C@H](Cc2c[nH]c3ccccc23)NC(=O)[C@H](CCCNC(=N)N)NC(=O)[C@@H](Cc2ccccc2)NC(=O)[C@H](CCN)NC1=O [compound 141, Ac-Cit-cyclo(Asp-Dab- D-Phe-Arg-Trp-Lys)- NH2]		9
CC(=O)N[C@@H](CCC(N)=O)C(=O)N[C@H]1CC(=O)NCCCC[C@@H](C(N)=O)NC(=O)[C@H](Cc2c[nH]c3ccccc23)NC(=O)[C@H](CCCNC(=N)N)NC(=O)[C@@H](Cc2ccccc2)NC(=O)[C@H](CCN)NC1=O [compound 142, Ac-Gln-cyclo(Asp-Dab- D-Phe-Arg-Trp-Lys)- NH2] (HELM PEPTIDE1{[ac].Q.D.[Dab].[dF].R.W.K.[am]}$PEPTIDE1,PEPTIDE1,3:R3-8:R3$$$V2.0)		15
CC(=O)N[C@@H](CCCNC(=N)N)C(=O)N[C@H]1CCCC(=O)NCC[C@@H](C(=O)O)NC(=O)[C@H](Cc2c[nH]c3ccccc23)NC(=O)[C@H](CCCNC(=N)N)NC(=O)[C@@H](Cc2ccccc2)NC(=O)[C@H](CCN)NC1=O [compound 144, Ac-Arg-cyclo(hGlu-Dab- D-Phe-Arg-Trp-Dab)- OH]		45
